Laboratory results from patent US4948786A, “Composition for treatment of ischemic disorder in organs” (Takeda Chemical Industries, Ltd., priority 1988, dated 1990).
Counter-ions that a name gives are not always drawn.

Experiments:
[1] = system: Lipid Peroxidation in Rat Brain Homogenate; conditions: for Inhibitory Effect (%): final concentration 10^-4 M, 5% homogenate, pH 7.4, 37° C., 1 hour, vs DMSO reference, malonic dialdehyde by TBA method
Acute toxicity (LD50) = conditions: in vivo, rat
[2] = system: ischemic-reperfused rat heart; test: Reducing activity against the size of infarction in ischemic-reperfused rat heart; type: in vivo, rat (Wistar male); conditions: i.v.; for Size of Infarction (% of left ventrical) / Inhibition (% of Control): 30 minutes after ligation; for Size of Infarction (% of left ventrical): mean ± SEM, control 35.0 ± 2.9
Method: Reducing activity of α-EPC-Na(DL) against the size of infarction in ischemic-reperfused rat heart:
Wistar male rats (body weight […]) were anesthetized with pentobarbital and subjected to thoracetomy. The left anterior descending coronary artery (LAD) was ligated at its origin for 1 hour. Then, the ligation was released to allow reperfusion. After 30 to 60 minutes reperfusion, the chest was closed and the animals (rats) maintained in conscious state. After 24 hours, the animals (rats) were reanesthetized, and then the heart was excised. The left ventricles were cut parallel to the atrioventricular sulcus into slices. The slices were stained at 37° C. for 15 minutes using triphenyltetrazolium chloride, and the size of infarction was weighed.
α-EPC-Na dissolved in saline solution was administered into the femoral vein at doses of 0.3, 1 and 5 mg/kg 30 minutes after the ligation. For the control group, only saline solution was administered.

In the case of `CC(C)CCCC(C)CCCC(C)CCCC1(C)CCc2cc(OP(=O)(O)OC3=C(O)[C@@H]([C@@H](O)CO)OC3=O)ccc2O1` (mixture of isomers) [TPC-Na(DL), L-Ascorbic acid DL-tocoryl phosphate diester sodium salt], the “Inhibitory Effect (%)” value [1] was 35.7 ± 2.6%.

In the case of `Cc1c(C)c2c(c(C)c1OP(=O)(O)OC1=C(O)[C@@H]([C@@H](O)CO)OC1=O)CCC(C)(CCCC(C)CCCC(C)CCCC(C)C)O2` (mixture of isomers) [α-EPC-Na(DL), L-Ascorbic acid, DL-α-tocopheryl phosphate diester sodium salt], the LD50 (Acute toxicity (LD50); sc, subcutaneous administration) was 737 mg/kg, the LD50 (Acute toxicity (LD50); oral administration) was over 10000 mg/kg and the “Inhibitory Effect (%)” value [1] was 61.8 ± 38.1%. For the same compound, the “Size of Infarction (% of left ventrical)” value ([2]; 0.3 mg/kg) was 32.4 ± 4.3 % of left ventrical, the “Inhibition (% of Control)” value ([2]; 1.0 mg/kg) was -22.3 % of Control and the “Size of Infarction (% of left ventrical)” value ([2]; 1.0 mg/kg) was 27.2 ± 2.8 % of left ventrical. For the same compound, the “size of myocardial infarction, reduced to” value ([2]; 5 mg/kg) was “about 50%”, the “Inhibition (% of Control)” value ([2]; 5.0 mg/kg) was -47.7 % of Control and the “Size of Infarction (% of left ventrical)” value ([2]; 5.0 mg/kg) was 18.3 ± 1.1 % of left ventrical. For the same compound, the “reduction of the size of myocardial infarction (in words)” value ([2]; 0.3, 1 and 5 mg/kg) was “reduced the size of myocardial infarction dose-dependently”.

For `Cc1cc(OP(=O)(O)OC2=C(O)[C@@H]([C@@H](O)CO)OC2=O)c(C)c2c1OC(C)(CCCC(C)CCCC(C)CCCC(C)C)CC2` (mixture of isomers) [β-EPC-K(DL), L-Ascorbic acid DL-β-tocopheryl phosphate diester potassium salt], the “Inhibitory Effect (%)” value [1] was 58.9 ± 19.4%.

For `Cc1c(C)c2c(c(C)c1O)CCC(C)(CCCC(C)CCCC(C)CCCC(C)C)O2` (racemic) [DL-α-tocopherol, reference compound], the “Inhibitory Effect (%)” value [1] was 50.8 ± 18.5%.

With `O=C1O[C@H]([C@@H](O)CO)C(O)=C1O` [L-ascorbic acid, reference compound] the “inhibition of lipid peroxidation (in words)” value ([1]; 10^-4 M, rat brain homogenate) was “did not inhibit lipid peroxidation” and the “Inhibitory Effect (%)” value [1] was 1.6 ± 15.0%.

In the case of `Cc1c(OP(=O)(O)OC2=C(O)[C@@H]([C@@H](O)CO)OC2=O)cc2c(c1C)O[C@](C)(CCC[C@H](C)CCC[C@H](C)CCCC(C)C)CC2` [γ-EPC-K(D), L-Ascorbic acid D-γ-tocopheryl phosphate diester potassium salt], the “Inhibitory Effect (%)” value [1] was 62.0 ± 8.2%.

In the case of `Cc1cc(OP(=O)(O)OC2=C(O)[C@@H]([C@@H](O)CO)OC2=O)cc2c1O[C@](C)(CCC[C@H](C)CCC[C@H](C)CCCC(C)C)CC2` [δ-EPC-K(D), L-ascorbic acid D-δ-tocopheryl phosphate diester], the “Inhibitory Effect (%)” value [1] was 38.1 ± 8.3%.
